# According to patent US20100267753A1, “METHODS OF TREATING DISORDERS ASSOCIATED WITH PROTEIN KINASE CK2 ACTIVITY” (priority 2009, published 2010):
# Legend:
# HIV-1 isolates = assay: PBMC assay, virus production; format: cell-based
# Procedure: Acute infection of HIV-1 isolates (CXCR4-tropic HIV-1 Subtype B and CCR5-tropic HIV-1 Subtype) using fresh human PBMCs from multiple donors (PMA and IL-2 stimulated). Antiviral activity determined as a reduction in reverse transcriptase after 7-day incubation.
# Antiviral activity was determined as a reduction in reverse transcriptase after 7-day incubation. AZT, a nucleoside analog reverse transcriptase inhibitor, was used as the positive control for the assay.
# DYRK2 = target: T1, DYRK2 (Homo sapiens, UniProt Q92630); assay: Kinase panel IC-50, DYRK2; format: biochemical
# T1 sequence (Q92630 1-601): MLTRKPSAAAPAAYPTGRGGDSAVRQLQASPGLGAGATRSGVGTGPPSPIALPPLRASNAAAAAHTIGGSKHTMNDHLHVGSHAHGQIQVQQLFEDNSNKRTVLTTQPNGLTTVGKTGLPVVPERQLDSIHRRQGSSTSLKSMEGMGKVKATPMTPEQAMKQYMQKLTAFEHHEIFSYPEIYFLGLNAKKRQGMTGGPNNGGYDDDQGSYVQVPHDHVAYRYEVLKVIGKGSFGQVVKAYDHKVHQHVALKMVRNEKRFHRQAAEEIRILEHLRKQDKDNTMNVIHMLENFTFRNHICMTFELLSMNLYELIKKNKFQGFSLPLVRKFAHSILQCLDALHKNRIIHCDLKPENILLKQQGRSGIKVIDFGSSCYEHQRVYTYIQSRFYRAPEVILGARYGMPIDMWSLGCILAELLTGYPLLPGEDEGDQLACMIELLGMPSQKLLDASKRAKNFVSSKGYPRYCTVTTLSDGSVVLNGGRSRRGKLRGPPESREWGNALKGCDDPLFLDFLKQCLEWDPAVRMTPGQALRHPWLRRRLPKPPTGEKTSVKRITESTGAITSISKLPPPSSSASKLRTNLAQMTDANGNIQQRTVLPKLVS
# [1] = Phase I clinical study, safety and pharmacokinetics; format: in vivo, human
# Procedure: Oral doses are administered twice daily for twenty-one consecutive days of a four week cycle. […] Response by RECIST is determined after every 2 cycles. Serial blood and plasma samples are collected on the first and final dosing days of Cycle 1 (i.e., Day 1 and Day 21) for pharmacokinetic analysis and for pharmacodynamic biomarker evaluations (specifically, total and phosphorylated forms of p21 and Akt).
# Patients in Cohorts 1-3 were dosed twice daily (BID) with oral capsules.
# [2] = thirteen patients with solid tumors, oral BID
smiles,measurement,setting,value
"O=C(O)c1ccc2c(c1)nc(Nc1cccc(Cl)c1)c1ccncc12 [Compound K, 5-(3-chlorophenylamino)benzo[c][2,6]naphthyridine-8-carboxylic acid]",inhibition of virus production,HIV-1 isolates,no significant inhibition of virus production
same,IC50,DYRK2,91 nM
same,dose-limiting toxicities (DLTs),[1]; Phase I patients,No dose-limiting toxicities (DLTs) have yet been observed
same,drug related toxicity,[1]; Phase I patients,no drug related toxicity
same,plasma exposures,"[1]; after first dose on day 1 and day 21, Cohorts 1-3 (90, 160, 300 mg BID)",Dose related plasma exposures were observed
same,accumulation,[1]; day 1 vs day 21,No accumulation was observed
same,half-life,"[1]; human, in vivo, at steady state, patients, oral BID, read-out: terminal half life (converted)",~25 h
same,drug-related significant adverse events of grade 3 or higher,[1]; [2],no drug-related significant adverse events of grade 3 or higher reported
same,tolerability of oral doses,[1]; [2],well tolerated
